Laboratory results reported in PubChem BioAssay AID2060886 (Molecular Pharmacology Branch, DTP, NCI, 2025).
Where “and” joins values, the source holds several entries; their conditions need not be identical. Equal entries are not always repeated. Blank lines part the entries; values can stand above or below the compound they belong to.

Tested on: 653999-131-R-J2-PDC complex spheroids, growth inhibition
Assay: Anticancer human tumor 653999-131-R-J2-PDC patient-derived lung adenocarcinoma cell line growth inhibition [RAS]
Details: for viability, T/C: stronger effect = lower value
Excerpt: RAS pathway inhibitors in Combinations in Complex Spheroids
A high-throughput screen of multi-cell type tumor spheroids was designed to identify active combinations of RAS pathway inhibitors and targeted small molecules. Complex spheroids include a stromal component modeled by human endothelial cells (HUVEC) and fibroblasts modeled by human mesenchymal stem cells (MSCs). The concentration ranges selected for each drug and investigational agent were based upon clinically achievable concentrations if the clinical Cmax of the agent was known.
Compounds. The drugs and investigational agents: abemaciclib (NSC768073), cobimetinib (NSC768068), divarasib (GDC6063, NSC841802), docetaxel (NSC628503), GDC-1971 (RLY-1971, NSC841576), gemcitabine (NSC613327), inavolisib (NSC800729), ipatasertib (NSC767898), KB-0742 (NSC834161), MRTX-1133 (NSC836407), osimertinib (NSC779217), RMC-4630 (NSC839698), RMC-6236 (NSC851965), RMC-6291 (NSC852671), Ro-3306 (NSC812927), sapanisertib (NSC764658), SN-38 (NSC673596), staurosporine (NSC755774), SY5609 (NSC837396), and tovorafenib (DAY101, NSC766906), were obtained from the National Cancer Institute (NCI) Developmental Therapeutics Program Chemical Repository. The FDA-approved anticancer drug set is available from the NCI Developmental Therapeutics Program. […] The stock solutions were prepared in dimethyl sulfoxide (DMSO, Sigma-Aldrich, St. Louis, MO, cat. D2650) at 800-fold the tested concentration and stored at -70 degrees C prior to their use. All drugs and investigational agents were tested over a range starting from a high concentration at or near the clinical Cmax and decreasing in half-log increments. If the clinical Cmax for an agent had not been determined, the highest concentration tested was 10 microM.
Cell Culture. All cells were maintained in an incubator at 37 degrees C and 5% CO2 with 95% humidity. The PDC lines were cultured according to standard operating procedures established by the NCI PDMR. All PDCs were thawed and cultured in Matrigel-coated flasks prepared with a working solution of 1X Ham's F-12 nutrient mix, without supplementation (Invitrogen, Waltham, MA, cat. 11765054), 100 U/mL penicillin-streptomycin (Invitrogen, cat. 15140122), and 2.5% Matrigel (Corning Inc., Corning, NY, cat. 354248) for the first three passages. The 362531-283-R-J2-PDC and 782815-120-R-J1-PDC lines were cultured in 6C/Colon 1B media, which includes advanced DMEM/F-12 (Thermo Fisher Scientific, cat. 12634028), 10 mM HEPES (Thermo Fisher Scientific, cat. 15630080), 1X GlutaMAX supplement (Thermo Fisher Scientific, cat. 35050061), 0.1 mg/mL primocin (InvivoGen, San Diego, CA, cat. ant-pm-2), 10% defined fetal bovine serum, heat inactivated (HyClone Laboratories Inc., Logan, UT, cat. SH30070.03HI), 50% L-WRN conditioned media (ATCC, cat. CRL-3276), 1.25 mM N-Acetyl-L-cysteine (Sigma-Aldrich, cat. A9165), 10 mM nicotinamide (Sigma-Aldrich, cat. N0636), 1X B-27 supplement (Thermo Fisher Scientific, cat. 17504044), 1X N-2 supplement (Thermo Fisher Scientific, cat. 17502048), 50 ng/mL human EGF (Thermo Fisher Scientific, cat. PHG0311), and 10 microM Y-27632 dihydrochloride (Tocris Bioscience, cat. 1254). The K12877-001-R-J1-PDC line was cultured in 6I media, which includes all 6C/Colon 1B media plus 10 ng/mL human FGF-10 (PeproTech, cat. 100-26), 1 ng/mL human FGF-2 (PeproTech, cat. 100-18B), 1 µM prostaglandin E2 (Tocris Bioscience, cat. 2296), […] hydrocortisone (Sigma-Aldrich, cat. H4001), and […] bovine insulin (Sigma-Aldrich, cat. I6634). The K86415-001-R-J1-PDC line was cultured in 6D media, which includes all 6C/Colon 1B media components minus the L-WRN conditioned media. The 485176-168-R4-J1-PDC was cultured in PANC media, which includes all 6C/Colon 1B media plus 100 ng/mL human FGF-10 (PeproTech, cat. 100-26), 500 nM SB-431542 (Selleckchem, cat. S1067), and 10 nM gastrin (Tocris Bioscience, cat. 3006). […]
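Note: spheroids exposed to the agents for seven days before the readout.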

Structure (SMILES): CC(=O)OC12COC1CC(O)C1(C)C(=O)C(O)C3=C(C)C(OC(=O)C(O)C(NC(=O)OC(C)(C)C)c4ccccc4)CC(O)(C(OC(=O)c4ccccc4)C21)C3(C)C (configuration not stated)
viability, T/C (compound 0.0316 µM): 57.5% [middle of 4 runs]
viability, T/C (compound 0.1 µM): 58.8% [middle of 4 runs]
viability, T/C (compound 0.316 µM): 55.9% [middle of 4 runs]
viability, T/C (compound 1 µM): 61.6% [middle of 4 runs]
viability, T/C (compound 10 µM): 67.2% [middle of 4 runs]

Structure (SMILES): CC(C)NCC(C(=O)N1CCN(c2ncnc3c2C(C)CC3O)CC1)c1ccc(Cl)cc1 (configuration not stated)
viability, T/C (compound 0.0316 µM): 96.7% [middle of 4 runs]
viability, T/C (compound 0.1 µM): 96.7% [middle of 4 runs]
viability, T/C (compound 0.316 µM): 77.1% [middle of 4 runs]
viability, T/C (compound 1 µM): 54.2% [middle of 4 runs]
viability, T/C (compound 3.16 µM): 46.6% [middle of 4 runs]
viability, T/C (compound 10 µM): 34.9% [middle of 4 runs]

Structure (SMILES): CC(Nc1ccc2c(c1)OCCn1cc(N3C(=O)OCC3C(F)F)nc1-2)C(N)=O (configuration not stated)
viability, T/C (compound 0.0316 µM): 79.8% [middle of 4 runs]
viability, T/C (compound 0.1 µM): 77.8% [middle of 4 runs]
viability, T/C (compound 0.316 µM): 57.4% [middle of 4 runs]
viability, T/C (compound 1 µM): 45.6% [middle of 4 runs]
viability, T/C (compound 3.16 µM): 36.4% [middle of 4 runs]
viability, T/C (compound 10 µM): 25.5% [middle of 4 runs]
IC50 (curve of compound): 727 nM [middle of 4 runs]

Structure (SMILES): CCC(CC)c1cc(NC2CCC(N)C2)n2nccc2n1 (configuration not stated)
viability, T/C (compound 0.1 µM): 107% [middle of 4 runs]
viability, T/C (compound 0.316 µM): 120% [middle of 4 runs]
viability, T/C (compound 3.16 µM): 14% [middle of 4 runs]
viability, T/C (compound 10 µM): 19.9% [middle of 4 runs]
IC50 (curve of compound): 2.01 µM [middle of 4 runs]

Structure (SMILES): C[C@@H](NC(=O)c1ncnc(N)c1Cl)c1ncc(C(=O)Nc2cc(C(F)(F)F)c(Cl)cn2)s1
viability, T/C (compound 0.0316 µM): 110% and 94.1% and 103%
viability, T/C (compound 0.1 µM): 99.2% and 120% and 108%
viability, T/C (compound 0.316 µM): 93.9% and 101% and 114%
viability, T/C (compound 1 µM): 91.1% and 102% and 105%
viability, T/C (compound 3.16 µM): 98.3% and 99.8% and 102%
viability, T/C (compound 10 µM): 68.6% and 79% and 75.5%
IC50 (curve of compound): > 10000 nM

Structure (SMILES): C=CC(=O)Nc1cc(Nc2nccc(-c3cn(C)c4ccccc34)n2)c(OC)cc1N(C)CCN(C)C + C#Cc1c(F)ccc2cc(O)cc(-c3ncc4c(N5CC6CCC(C5)N6)nc(OCC56CCCN5CC(F)C6)nc4c3F)c12
IC50 (curve of first compound, second compound 0.0316 µM): > 1000 nM
IC50 (curve of first compound, second compound 0.1 µM): 613 nM
IC50 (curve of first compound, second compound 0.316 µM): 61.7 nM
IC50 (curve of first compound, second compound 1 µM): 17.7 nM
IC50 (curve of first compound, second compound 3.16 µM): < 3.16 nM
IC50 (curve of first compound, second compound 10 µM): < 3.16 nM
viability, T/C (second compound 0.0316 µM, first compound 0.00316 µM): 96.1%
viability, T/C (second compound 0.0316 µM, first compound 0.01 µM): 80.7%
viability, T/C (second compound 0.0316 µM, first compound 0.0316 µM): 82.9%
viability, T/C (second compound 0.0316 µM, first compound 0.1 µM): 68.3%
viability, T/C (second compound 0.0316 µM, first compound 0.316 µM): 55.5%
viability, T/C (second compound 0.0316 µM, first compound 1 µM): 63.3%
viability, T/C (second compound 0.1 µM, first compound 0.00316 µM): 89.4%
viability, T/C (second compound 0.1 µM, first compound 0.01 µM): 90.8%
viability, T/C (second compound 0.1 µM, first compound 0.0316 µM): 57.7%
viability, T/C (second compound 0.1 µM, first compound 0.1 µM): 69.9%
viability, T/C (second compound 0.1 µM, first compound 0.316 µM): 57.2%
viability, T/C (second compound 0.1 µM, first compound 1 µM): 44.3%
viability, T/C (second compound 0.316 µM, first compound 0.00316 µM): 77%
viability, T/C (second compound 0.316 µM, first compound 0.01 µM): 95%
viability, T/C (second compound 0.316 µM, first compound 0.0316 µM): 65.1%
viability, T/C (second compound 0.316 µM, first compound 0.1 µM): 37.1%
viability, T/C (second compound 0.316 µM, first compound 0.316 µM): 40.9%
viability, T/C (second compound 0.316 µM, first compound 1 µM): 39.2%
viability, T/C (second compound 1 µM, first compound 0.00316 µM): 60.9%
viability, T/C (second compound 1 µM, first compound 0.01 µM): 53.7%
viability, T/C (second compound 1 µM, first compound 0.0316 µM): 43.2%
viability, T/C (second compound 1 µM, first compound 0.1 µM): 42.8%
viability, T/C (second compound 1 µM, first compound 0.316 µM): 36.1%
viability, T/C (second compound 1 µM, first compound 1 µM): 28.1%
viability, T/C (second compound 3.16 µM, first compound 0.00316 µM): 45.6%
viability, T/C (second compound 3.16 µM, first compound 0.01 µM): 35.2%
viability, T/C (second compound 3.16 µM, first compound 0.0316 µM): 38.3%
viability, T/C (second compound 3.16 µM, first compound 0.1 µM): 25.9%
viability, T/C (second compound 3.16 µM, first compound 0.316 µM): 22.8%
viability, T/C (second compound 3.16 µM, first compound 1 µM): 19.6%
viability, T/C (second compound 10 µM, first compound 0.00316 µM): 35.2%
viability, T/C (second compound 10 µM, first compound 0.01 µM): 27.7%
viability, T/C (second compound 10 µM, first compound 0.0316 µM): 26.4%
viability, T/C (second compound 10 µM, first compound 0.1 µM): 15.5%
viability, T/C (second compound 10 µM, first compound 0.316 µM): 15.2%
viability, T/C (second compound 10 µM, first compound 1 µM): 10.5%

Now from value to compound, other results behind:

IC50 (compound alone, run of 09/09/2024): 1.88 µM [middle of 8 runs]
Structure (SMILES): C#Cc1c(F)ccc2cc(O)cc(-c3ncc4c(N5CC6CCC(C5)N6)nc(OCC56CCCN5CC(F)C6)nc4c3F)c12 (configuration not stated)
viability, T/C (compound 0.0316 µM): 99% [middle of 8 runs]
viability, T/C (compound 0.1 µM): 89.6% [middle of 8 runs]
viability, T/C (compound 0.316 µM): 71.2% [middle of 8 runs]
viability, T/C (compound 1 µM): 58.1% [middle of 8 runs]
viability, T/C (compound 3.16 µM): 43.8% [middle of 8 runs]
viability, T/C (compound 10 µM): 31.8% [middle of 8 runs]

IC50 (curve of compound): 6.68 µM [middle of 4 runs]
Structure (SMILES): CC1(O)CCCC1n1c(=O)c(C(F)F)cc2cnc(NC3CCN(S(C)(=O)=O)CC3)nc21 (configuration not stated)
viability, T/C (compound 0.0316 µM): 89.5% [middle of 4 runs]
viability, T/C (compound 0.1 µM): 69.3% [middle of 4 runs]
viability, T/C (compound 0.316 µM): 65.3% [middle of 4 runs]
viability, T/C (compound 1 µM): 66.8% [middle of 4 runs]
viability, T/C (compound 3.16 µM): 73.8% [middle of 4 runs]
viability, T/C (compound 10 µM): 35.3% [middle of 4 runs]

IC50 (curve of compound): > 10000 nM
Structure (SMILES): Cc1nc(N2CCC3(CC2)COC(C)C3N)c(CO)nc1Sc1ccnc(N)c1Cl (configuration not stated)
viability, T/C (compound 0.0316 µM): 91.2% [middle of 4 runs]
viability, T/C (compound 0.1 µM): 98.4% [middle of 4 runs]
viability, T/C (compound 1 µM): 87.6% [middle of 4 runs]
viability, T/C (compound 3.16 µM): 85.8% [middle of 4 runs]

IC50 (curve of compound): > 10000 nM
Structure (SMILES): NC1c2ccccc2OC12CCN(c1cnc3c(N4CCCc5ncccc54)n[nH]c3n1)CC2 (configuration not stated)
viability, T/C (compound 0.0316 µM): 73.8% [middle of 4 runs]
viability, T/C (compound 0.316 µM): 75.5% [middle of 4 runs]
viability, T/C (compound 1 µM): 77.6% [middle of 4 runs]
viability, T/C (compound 3.16 µM): 83.9% [middle of 4 runs]
viability, T/C (compound 10 µM): 78.4% [middle of 4 runs]
